The record followed here is PubChem BioAssay (NCI).

“And” between values parts separate entries of the source, which are not always exact repeats. Identical values can stand only once.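 Following 48 hours of exposure in 96-well plates, responses at five concentrations were used to interpolate endpoints linearly. GI50 marks 50% less growth. TGI marks complete inhibition of growth.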

Test in all cases: growth of human tumour cells (NCI), 48 h
In experiment [1] the test system is TK-10 renal.
Experiment [2] concerns LOX IMVI melanoma.
In experiment [3] the test system is ACHN renal.
The subject of experiment [4] is UACC-62 melanoma.
Experiment [5] deals with HL-60(TB) leukemia.
Experiment [6] has as its system OVCAR-8 ovarian.
Experiment [7] deals with HOP-62 NSCLC.
In experiment [8] the test system is SF-268 CNS.
The test system of experiment [9] is SF-539 CNS.
Experiment [10] has as its system NCI-H522 lung.
Experiment [11] concerns EKVX NSCLC.
Experiment [12] deals with SNB-19 CNS.
The test system of experiment [13] is HOP-92 NSCLC.
Experiment [14] has as its system OVCAR-3 ovarian.
In experiment [15] the test system is M14 melanoma.
Experiment [16] relates to MDA-MB-435.
Experiment [17] relates to HS 578T breast.
Experiment [18] concerns PC-3 prostate.

Consider `N/N=c1/nc2n(c3ncccc13)C=CNN2`, for which the TGI in experiment [1], in experiment [2], in [3], in experiment [4], in [5] and in experiment [6] was greater than 100 µM throughout. Moreover, the TGI in [7], in experiment [8], in experiment [9], in [10], in experiment [11] and in experiment [12] was greater than 100 µM throughout. The TGI in experiment [13] and in experiment [14] was greater than 100 µM each time.
For `O=C1C(Cl)C(c2cccc([N+](=O)[O-])c2)N1n1cnc2ccccc2c1=O` (stereo not drawn), the TGI in [1], in experiment [2], in experiment [3], in [4], in experiment [5] and in experiment [6] was greater than 100 µM each time. The TGI in experiment [7], in [8], in [10], in [15], in experiment [11] and in experiment [12] was greater than 100 µM throughout. Also, in experiment [14], the TGI was greater than 100 µM.
With `O=C1CSC(c2c[nH]c3ccccc23)N1c1cccc(Cl)c1` (stereo not drawn), the TGI in experiment [1], in experiment [16], in experiment [3], in experiment [4], in experiment [5] and in [6] was greater than 100 µM each time. For the same compound, the TGI in [7], in experiment [8], in [9], in [15], in experiment [17] and in experiment [11] was greater than 100 µM throughout. The TGI in experiment [12], in experiment [13] and in experiment [14] was greater than 100 µM throughout.
As for `CCN(CC)C(=O)CCn1ccc(=O)[nH]c1=O`, the TGI in experiment [1], in experiment [2], in [3], in experiment [4], in experiment [5] and in experiment [6] was greater than 100 µM throughout. Further, the TGI in experiment [7], in [8], in [9], in experiment [10], in experiment [15] and in experiment [11] was greater than 100 µM each time. The TGI in [12] and in experiment [14] was greater than 100 µM each time.
As to `O=C(Cc1ccccc1)NN1C(=O)C(Cl)C1c1ccc(Cl)cc1` (stereo not drawn), the TGI in experiment [1], in experiment [2], in [3], in experiment [4], in [5] and in experiment [6] was greater than 100 µM in each case. Moreover, the TGI in [7], in [8], in experiment [10], in experiment [15], in experiment [11] and in [12] was greater than 100 µM each time. The compound also showed a TGI in [14] greater than 100 µM.
On to `Nc1ccccc1N`, for which the TGI was greater than 100 µM in experiment [1]; greater than 100 µM in [2]; greater than 100 µM in experiment [3]; greater than 100 µM in experiment [4]; 70.3 µM in experiment [5]; greater than 100 µM in [6]. Besides, the TGI in experiment [7] is greater than 100 µM; in experiment [8], greater than 100 µM; in [9] it was greater than 100 µM; in experiment [10], 47.5 µM; in [15] it was greater than 100 µM; in [12], greater than 100 µM. The TGI in experiment [13] and in experiment [14] was greater than 100 µM in each case.
For the compound `O=C(c1ccc2ccccc2c1)C1(I)S(=O)(=O)OCCOS1(=O)=O`, the TGI in experiment [1], in experiment [16], in [3], in [5], in experiment [6] and in experiment [7] was greater than 100 µM each time. The TGI in experiment [15], in [18], in experiment [11], in experiment [12] and in experiment [14] was greater than 100 µM throughout.
Take `CC(=O)CCC#Cc1ccccc1C(=O)C(C)=[N+]=[N-]`: the TGI in [1] was greater than 100 µM; in [2], greater than 100 µM; in experiment [3], greater than 100 µM; in experiment [4] it was 38.7 µM; in [5] it was greater than 100 µM; in [6] it was greater than 100 µM. Moreover, the TGI in experiment [7], in experiment [8], in experiment [9], in experiment [15], in experiment [11] and in [12] was greater than 100 µM throughout. Besides, the TGI in experiment [13] and in experiment [14] was greater than 100 µM throughout.
Take `CCC(C)N1CN(c2ccccc2)C2(CCN(CC3COc4ccccc4O3)CC2)C1=O` (stereo not drawn): the TGI in experiment [1] is 86.2 µM; in [2], 44.2 µM; in experiment [16], 49.7 µM; in [3], greater than 100 µM; in experiment [4], 49.8 µM; in [5] it was 34.4 µM. In addition, the TGI is 67.9 µM in [6]; 41.7 µM in experiment [7]; greater than 100 µM in [8]; 33.3 µM in [9]; 68.6 µM in experiment [10]; 46.3 µM in experiment [15]. The TGI is 87.3 µM in experiment [18], 64.1 µM in [11], greater than 100 µM in experiment [12] and 56.2 µM in experiment [14].
For the compound `CC(C)[Si](OC12CCC(CC1O)CC2CO)(C(C)C)C(C)C` (stereo not drawn), the TGI in [1] is 27.5 µM; in [16], 31.7 µM; in experiment [3], 27.2 µM; in [4], 28.9 µM; in experiment [5] it was 6.73 µM; in experiment [6], 29.7 µM. In addition, the TGI in experiment [7] amounted to 29.9 µM; in [8], 27.9 µM; in [9] it was 38 µM; in experiment [15], 28.4 µM; in experiment [18] it was 24.1 µM; in [12] it was 28.6 µM. For the same compound, the TGI in [13] came out at 29 µM; in [14], 27.6 µM.
As to `C/C(=N/NC(=O)c1ccccc1S(N)(=O)=O)C(CN1CCCCC1)C(C1=C(O)C2C=CC=CC2OC1=O)c1ccccc1` (stereo not drawn), the TGI in [1] is greater than 100 µM; in [2], greater than 100 µM; in experiment [3] it was greater than 100 µM; in experiment [4], greater than 100 µM; in experiment [5], 53.3 µM; in experiment [6] it was greater than 100 µM. For the same compound, the TGI in experiment [7], in experiment [8], in experiment [9], in experiment [10], in experiment [15] and in [11] was greater than 100 µM in each case. The TGI in experiment [12] is greater than 100 µM; in experiment [13], 77.1 µM; in experiment [14], greater than 100 µM.
With `NCCCCCC(CCN)SCC1OC(n2cnc3c(N)ncnc32)C(O)C1O` (stereo not drawn), the TGI in [2], in [4], in experiment [5], in experiment [6], in [7] and in [8] was greater than 1500 µM each time. For the same compound, the TGI was greater than 1240 µM in [9]; greater than 1500 µM in experiment [10]; greater than 1500 µM in experiment [11]; greater than 1500 µM in [12]; greater than 1240 µM in experiment [13]; greater than 1500 µM in experiment [14].
With `COC(=O)NC(=O)NC(Cc1ccccc1)NC(=O)OCc1ccccc1` (stereo not drawn), the TGI in experiment [1], in [2], in experiment [16], in [3], in experiment [4] and in experiment [5] was greater than 100 µM throughout. In addition, the TGI was greater than 100 µM in [6]; greater than 100 µM in experiment [7]; greater than 100 µM in [8]; 71.4 µM in experiment [9]; greater than 100 µM in experiment [10]; greater than 100 µM in experiment [15]. In addition, the TGI was greater than 100 µM in experiment [18]; greater than 100 µM in experiment [11]; greater than 100 µM in experiment [12]; 42.5 µM in experiment [13]; greater than 100 µM in [14].
As to `COC(=O)c1cc2ccc(O)c(O)c2cn1`, the TGI was 34.6 µM in experiment [1]; 5.43 µM and 3.31 µM in [2]; 3.25 µM and 3.21 µM in [16]; 43.6 µM in experiment [3]; 6.16 µM and 30.9 µM in [4]; greater than 100 µM in experiment [5]. For the same compound, the TGI in [6] was 28.6 µM; in experiment [7] it was 36.2 µM; in [8], 30.8 µM; in experiment [9] it was 33.5 µM; in [10], 37.9 µM; in [15], 34.6 µM. Further, the TGI is 56.4 µM in experiment [18], 38.4 µM in experiment [11], 26.3 µM in experiment [13] and 30.8 µM in [14]. The GI50 is 1.57 µM in [2] and 14.2 µM in experiment [4].
Consider `C=C=C[P+](c1ccccc1)(c1ccccc1)c1ccccc1`, for which the TGI in experiment [1] is 78.2 µM; in [3] it was greater than 100 µM; in experiment [5], 23.4 µM; in [6], greater than 100 µM; in [7], greater than 100 µM; in experiment [8] it was greater than 100 µM. Moreover, the TGI was determined as 40.2 µM in [9], 6 µM in experiment [10], 19.5 µM in experiment [15] and 34.4 µM in experiment [14].
With `O=C(O)CN1CCSc2ccccc2CN(CC(=O)O)CCSc2ccccc2C1`, the TGI in experiment [1], in experiment [2], in experiment [3], in [4], in experiment [5] and in experiment [6] was greater than 100 µM each time. For the same compound, the TGI in experiment [7], in [8], in [9], in experiment [10], in experiment [15] and in experiment [11] was greater than 100 µM throughout. Besides, the TGI in [12], in [13] and in experiment [14] was greater than 100 µM each time.
As to `CN1C2CCC1/C(=C/c1cccc3c1OCO3)C(=O)/C2=C\c1cccc2c1OCO2`, the TGI in experiment [1] is 56.2 µM; in experiment [2], greater than 100 µM; in [3] it was greater than 100 µM; in [4], 91.4 µM; in experiment [5], greater than 100 µM; in experiment [6], greater than 100 µM. Besides, the TGI in [7] is 41.2 µM; in experiment [8], greater than 100 µM; in experiment [15], greater than 100 µM; in [11] it was greater than 100 µM; in [13], 98.7 µM; in experiment [14] it was greater than 100 µM.
In the case of `C=C(Br)C(C)(Cl)CCC(Br)C(C)(C)Br` (stereo not drawn), the TGI in [1] was greater than 100 µM; in [2], 50.5 µM; in experiment [3] it was greater than 100 µM; in [4], greater than 100 µM; in [5], 54.5 µM; in experiment [6] it was greater than 100 µM. Besides, the TGI in experiment [7], in experiment [9], in experiment [10], in [15] and in experiment [13] was greater than 100 µM in each case.
As for `CCOC(=O)CC1=N/C(=N/C(=N)N[N+](=O)[O-])SC1`, the TGI in experiment [1], in experiment [2], in [3], in experiment [4], in experiment [5] and in [6] was greater than 100 µM throughout. In addition, the TGI in experiment [7], in experiment [8], in [9], in experiment [10], in [15] and in experiment [11] was greater than 100 µM each time. The TGI in [12], in [13] and in experiment [14] was greater than 100 µM each time.
With `COc1cccc2c1C(=O)c1c(O)c3c(c(O)c1C2=O)C[C@@](O)(C(=O)CO)CC3OC1CC(N(C)CCOCC(OC(C)=O)OC(C)=O)C(O)C(C)O1` (stereo partly drawn), the TGI in experiment [1], in experiment [2], in experiment [3], in [4], in [5] and in [6] was greater than 0.01 µM in each case. Moreover, the TGI in experiment [7], in experiment [8], in experiment [9], in [10], in experiment [15] and in experiment [11] was greater than 0.01 µM throughout. For the same compound, the TGI in experiment [12], in experiment [13] and in experiment [14] was greater than 0.01 µM throughout.
